Data taken from PMC2409936, “Phase I and pharmacokinetic study of XR11576, an oral topoisomerase I and II inhibitor, administered on days 1–5 of a 3-weekly cycle in patients with advanced solid tumours” (British Journal of Cancer, 2004).

Key:
[1] = mice; cited from earlier work
dogs = conditions: cited from earlier work
advanced solid tumours = assay: Tumour evaluation according to RECIST; assay type: in vivo, human
Experimental: Before treatment, a complete medical history was recorded and a physical examination performed. A complete blood count (CBC) including white blood cell differential and serum biochemistry, which involved sodium, potassium, calcium, urea, creatinine, uric acid, total protein, albumin, total bilirubin, alkaline phosphatase, γ-glutamyl transferase, aspartate aminotransferase, alanine aminotransferase, lactate dehydrogenase and glucose, were performed, as were urinalysis, pregnancy test, relevant tumour markers, electrocardiogram and a chest X-ray. The electrocardiogram was also performed 2 and 24 h after the first drug administration in the first and second cycles. Weekly evaluations included history, physical examination, toxicity assessment according to the CTC criteria version 2.0, and serum chemistries. Complete blood count was determined twice weekly. Tumour evaluation was performed after every two courses according to the Response Evaluation Criteria in Solid Tumours (RECIST) ([Therasse et al, 2000]). Patients were taken off protocol at the onset of disease progression.

[2] = tested on: multidrug-resistant cells overexpressing P-gp or MRP, cells with downregulation of topoisomerase II levels; design: method as in Di Nicolantonio et al, 2002; conditions: cells overexpressing P-gp or MRP or with downregulated topoisomerase II; ref Di Nicolantonio et al, 2002; cited from earlier work
animals = conditions: in animals; cited from earlier work

## COc1cccc2c1ccc1nc3cccc(C(=O)N[C@H](C)CN(C)C)c3nc12 [XR11576, 4-methoxy-benzo[a]phenazine-11-carboxylic acid (2-dimethulamino-1-R-methyl-ethyl)-amide]
[1]
  effect of food on bioavailability: food reduced the bioavailability
  oral availability: 72±25%
dogs; 8/9-day oral administration schedule
  maximum tolerated dose (MTD): 200 mg m^−2
dogs; i.v. doses repeatedly administered
  toxicities observed: myocarditis and nephritis
Advanced solid tumours; 21 assessable patients
  objective responses: No objective responses
Advanced solid tumours; in vivo
  stable disease, median duration: 12 weeks
  stable disease, range of duration: 12–30 weeks
Advanced solid tumours; melanoma, cervical cancer and parotid cancer
  patients with stabilisation of disease: Four patients
[2]
  activity against resistant cells: active
animals
  predominantly induced toxicity: bone marrow and gastrointestinal toxicity
